Measured values as given in ChEMBL document CHEMBL3885861, “Open TG-GATES”.

Organism: Rattus norvegicus
Experiment: Open TG-GATES - Regimen: Single
Assay type: toxicity, organism-based, Sprague-Dawley
Design: regimen Single, gender Male, age 6 weeks
Settings: in vivo, po, route gavage; for APTT / Bas / Eos / Fbg / Hb / Lym / MCH / MCHC / MCV / Mono / PT / Plat / RBC / Ret / WBC / Ht / Neu: tissue Blood; for KIDNEY_L / KIDNEY_R / KIDNEY_TOTAL: tissue Kidney; for LIVER: tissue Liver
[1] = 60 mg/kg, 24 h, tissue Plasma, dose level Low
[2] = 200 mg/kg, 3 h, dose level Middle
[3] = 200 mg/kg, 3 h, tissue Plasma, dose level Middle
[4] = 200 mg/kg, 6 h, dose level Middle
[5] = 200 mg/kg, 6 h, tissue Plasma, dose level Middle
[6] = 200 mg/kg, 9 h, dose level Middle
[7] = 200 mg/kg, 9 h, tissue Plasma, dose level Middle
[8] = 200 mg/kg, 24 h, dose level Middle
[9] = 200 mg/kg, 24 h, tissue Plasma, dose level Middle
[10] = 400 mg/kg, 3 h, dose level High
[11] = 400 mg/kg, 3 h, tissue Plasma, dose level High
[12] = 400 mg/kg, 6 h, dose level High
[13] = 400 mg/kg, 6 h, tissue Plasma, dose level High
[14] = 400 mg/kg, 9 h, dose level High
[15] = 400 mg/kg, 9 h, tissue Plasma, dose level High
[16] = 400 mg/kg, 24 h, dose level High
[17] = 400 mg/kg, 24 h, tissue Plasma, dose level High

CC(C)Cc1ccc(C(C)C(=O)O)cc1 (stereo not drawn) [IBUPROFEN]
TG [1]: 83.2 mg/dL
TP [1]: 5.5 g/dL
gamma-GTP [1]: 1.4 IU/L
TERMINAL_BW [2]: 203.6 g
APTT [2]: 21.7 s
Bas [2]: 0%
Eos [2]: 0.8%
Fbg [2]: 294 mg/dL
Hb [2]: 13 g/dL
Lym [2]: 78.6%
MCH [2]: 21.8 pg
MCHC [2]: 33.8%
MCV [2]: 64.6 fL
Mono [2]: 1.6%
PT [2]: 15.6 s
Plat [2]: 130.9 x10_4/uL
RBC [2]: 596.8 x10_4/ul
Ret [2]: 8.5%
WBC [2]: 68.9 x10_2/uL
KIDNEY_L [2]: 0.9 g
KIDNEY_R [2]: 0.9 g
KIDNEY_TOTAL [2]: 1.8 g
LIVER [2]: 9.4 g
ALP [3]: 1619.6 IU/L
ALT [3]: 50.2 IU/L
AST [3]: 86.4 IU/L
CRE [3]: 0.2 mg/dL
DBIL [3]: 0.002 mg/dL
GLC [3]: 180 mg/dL
IP [3]: 8.8 mg/dL
K [3]: 4 meq/L
LDH [3]: 307.4 IU/L
Na [3]: 141.6 meq/L
PL [3]: 125.2 mg/dL
RALB [3]: 3.1 g/dL
TBIL [3]: 0.022 mg/dL
TC [3]: 73 mg/dL
TG [3]: 64.2 mg/dL
TP [3]: 5.4 g/dL
gamma-GTP [3]: 1 IU/L
TERMINAL_BW [4]: 197.7 g
Bas [4]: 0%
Eos [4]: 1%
Fbg [4]: 277 mg/dL
Hb [4]: 13.4 g/dL
Ht [4]: 39.7%
Lym [4]: 74.2%
MCHC [4]: 33.7%
MCV [4]: 65.6 fL
Mono [4]: 2.6%
PT [4]: 15.5 s
Plat [4]: 122.9 x10_4/uL
RBC [4]: 605 x10_4/ul
Ret [4]: 8.2%
WBC [4]: 77.7 x10_2/uL
KIDNEY_L [4]: 0.9 g
KIDNEY_R [4]: 0.9 g
KIDNEY_TOTAL [4]: 1.8 g
LIVER [4]: 8.6 g
ALP [5]: 1495.2 IU/L
ALT [5]: 48.6 IU/L
AST [5]: 83.4 IU/L
CRE [5]: 0.2 mg/dL
DBIL [5]: 0.002 mg/dL
GLC [5]: 170.8 mg/dL
IP [5]: 9.6 mg/dL
K [5]: 4.3 meq/L
LDH [5]: 244.8 IU/L
Na [5]: 140.4 meq/L
PL [5]: 110.6 mg/dL
RALB [5]: 2.8 g/dL
TBIL [5]: 0.022 mg/dL
TC [5]: 63.8 mg/dL
TG [5]: 57.2 mg/dL
TP [5]: 5.2 g/dL
gamma-GTP [5]: 1 IU/L
TERMINAL_BW [6]: 200.1 g
APTT [6]: 21.5 s
Bas [6]: 0%
Eos [6]: 0.4%
Fbg [6]: 268.6 mg/dL
Hb [6]: 13.2 g/dL
Ht [6]: 39.7%
Lym [6]: 60.8%
MCHC [6]: 33.3%
MCV [6]: 63.6 fL
Mono [6]: 3%
Neu [6]: 35%
PT [6]: 15.8 s
Plat [6]: 113 x10_4/uL
RBC [6]: 624.6 x10_4/ul
Ret [6]: 7.8%
WBC [6]: 87.7 x10_2/uL
KIDNEY_L [6]: 0.9 g
KIDNEY_R [6]: 0.9 g
KIDNEY_TOTAL [6]: 1.8 g
LIVER [6]: 8.1 g
ALP [7]: 1296.6 IU/L
ALT [7]: 37.4 IU/L
AST [7]: 69.2 IU/L
CRE [7]: 0.2 mg/dL
DBIL [7]: 0.004 mg/dL
GLC [7]: 180.2 mg/dL
K [7]: 4.3 meq/L
LDH [7]: 226.2 IU/L
Na [7]: 140.6 meq/L
RALB [7]: 2.8 g/dL
TBIL [7]: 0.018 mg/dL
TC [7]: 60.6 mg/dL
TG [7]: 50.4 mg/dL
TP [7]: 5 g/dL
gamma-GTP [7]: 1.2 IU/L
TERMINAL_BW [8]: 212.3 g
APTT [8]: 21.5 s
Bas [8]: 0%
Eos [8]: 1%
Fbg [8]: 360 mg/dL
Hb [8]: 12.9 g/dL
Ht [8]: 37.8%
Lym [8]: 66.4%
MCH [8]: 21.7 pg
MCHC [8]: 34.3%
MCV [8]: 63.3 fL
Mono [8]: 4.2%
PT [8]: 16.2 s
Plat [8]: 111.7 x10_4/uL
RBC [8]: 596.8 x10_4/ul
Ret [8]: 7.5%
KIDNEY_L [8]: 0.9 g
KIDNEY_R [8]: 1 g
KIDNEY_TOTAL [8]: 1.9 g
ALP [9]: 1263 IU/L
ALT [9]: 41.4 IU/L
AST [9]: 69.2 IU/L
CRE [9]: 0.2 mg/dL
Ca [9]: 10.4 mg/dL
DBIL [9]: 0 mg/dL
GLC [9]: 182.8 mg/dL
IP [9]: 7.6 mg/dL
K [9]: 4.3 meq/L
LDH [9]: 210.6 IU/L
Na [9]: 141.8 meq/L
PL [9]: 145.2 mg/dL
RALB [9]: 2.7 g/dL
TBIL [9]: 0.002 mg/dL
TC [9]: 77 mg/dL
TG [9]: 141.2 mg/dL
TP [9]: 5 g/dL
gamma-GTP [9]: 1.4 IU/L
TERMINAL_BW [10]: 201.6 g
APTT [10]: 20.6 s
Bas [10]: 0%
Eos [10]: 0.8%
Fbg [10]: 281.4 mg/dL
Hb [10]: 13.2 g/dL
Ht [10]: 39.2%
Lym [10]: 77.2%
MCH [10]: 21.6 pg
MCHC [10]: 33.7%
MCV [10]: 64.2 fL
Mono [10]: 1.6%
Neu [10]: 19.8%
PT [10]: 15.7 s
Plat [10]: 118.2 x10_4/uL
RBC [10]: 610.8 x10_4/ul
Ret [10]: 8.1%
WBC [10]: 69.4 x10_2/uL
KIDNEY_L [10]: 0.9 g
KIDNEY_R [10]: 0.9 g
KIDNEY_TOTAL [10]: 1.8 g
LIVER [10]: 8.7 g
ALP [11]: 1604.2 IU/L
ALT [11]: 52.2 IU/L
AST [11]: 80.4 IU/L
CRE [11]: 0.2 mg/dL
DBIL [11]: 0 mg/dL
GLC [11]: 162 mg/dL
IP [11]: 9.7 mg/dL
K [11]: 4 meq/L
LDH [11]: 264.8 IU/L
Na [11]: 140.6 meq/L
RALB [11]: 2.7 g/dL
TBIL [11]: 0.026 mg/dL
TC [11]: 69.8 mg/dL
TG [11]: 37.8 mg/dL
TP [11]: 5.3 g/dL
gamma-GTP [11]: 1.4 IU/L
TERMINAL_BW [12]: 200.3 g
APTT [12]: 21 s
Bas [12]: 0%
Eos [12]: 1%
Fbg [12]: 283.4 mg/dL
Hb [12]: 13.2 g/dL
Ht [12]: 39.3%
Lym [12]: 72.2%
MCH [12]: 21.5 pg
MCHC [12]: 33.7%
MCV [12]: 63.9 fL
Mono [12]: 2.6%
Neu [12]: 23.4%
PT [12]: 15.5 s
Plat [12]: 116.4 x10_4/uL
RBC [12]: 614.8 x10_4/ul
Ret [12]: 8.2%
WBC [12]: 67.5 x10_2/uL
KIDNEY_L [12]: 0.9 g
KIDNEY_R [12]: 0.9 g
KIDNEY_TOTAL [12]: 1.8 g
LIVER [12]: 8.2 g
ALP [13]: 1535.4 IU/L
ALT [13]: 48.8 IU/L
AST [13]: 76 IU/L
CRE [13]: 0.2 mg/dL
DBIL [13]: 0.006 mg/dL
GLC [13]: 172.8 mg/dL
IP [13]: 9.9 mg/dL
K [13]: 4.2 meq/L
LDH [13]: 246.4 IU/L
Na [13]: 140.2 meq/L
RALB [13]: 2.9 g/dL
TBIL [13]: 0.016 mg/dL
TC [13]: 62.6 mg/dL
TG [13]: 51.8 mg/dL
TP [13]: 5.3 g/dL
gamma-GTP [13]: 1 IU/L
TERMINAL_BW [14]: 204.9 g
APTT [14]: 21.6 s
Bas [14]: 0%
Eos [14]: 0.6%
Fbg [14]: 261.4 mg/dL
Ht [14]: 39.8%
Lym [14]: 63.4%
MCH [14]: 21.3 pg
MCHC [14]: 33.3%
MCV [14]: 63.8 fL
Mono [14]: 3%
Neu [14]: 32.8%
PT [14]: 15.6 s
Plat [14]: 120.1 x10_4/uL
RBC [14]: 624.4 x10_4/ul
Ret [14]: 7.8%
WBC [14]: 76.3 x10_2/uL
KIDNEY_L [14]: 0.9 g
KIDNEY_R [14]: 0.9 g
KIDNEY_TOTAL [14]: 1.8 g
LIVER [14]: 8.2 g
ALP [15]: 1623.8 IU/L
ALT [15]: 43.4 IU/L
AST [15]: 73 IU/L
CRE [15]: 0.2 mg/dL
DBIL [15]: 0.006 mg/dL
GLC [15]: 180.4 mg/dL
IP [15]: 10.2 mg/dL
K [15]: 4.1 meq/L
LDH [15]: 257 IU/L
Na [15]: 140.8 meq/L
PL [15]: 97.4 mg/dL
RALB [15]: 2.8 g/dL
TBIL [15]: 0.016 mg/dL
TC [15]: 53.6 mg/dL
TG [15]: 46.4 mg/dL
TP [15]: 5 g/dL
gamma-GTP [15]: 1 IU/L
TERMINAL_BW [16]: 209.2 g
APTT [16]: 21.1 s
Bas [16]: 0%
Eos [16]: 0.6%
Fbg [16]: 375.8 mg/dL
Hb [16]: 13.1 g/dL
Ht [16]: 38.2%
Lym [16]: 57.2%
MCHC [16]: 34.3%
MCV [16]: 61.7 fL
Mono [16]: 4.2%
Neu [16]: 36.2%
PT [16]: 16.1 s
RBC [16]: 619.4 x10_4/ul
Ret [16]: 6.8%
KIDNEY_L [16]: 0.9 g
KIDNEY_R [16]: 1 g
KIDNEY_TOTAL [16]: 1.9 g
LIVER [16]: 10.1 g
ALP [17]: 1531.4 IU/L
ALT [17]: 44 IU/L
AST [17]: 72.6 IU/L
CRE [17]: 0.2 mg/dL
DBIL [17]: 0.004 mg/dL
GLC [17]: 175.2 mg/dL
IP [17]: 7.5 mg/dL
K [17]: 4.3 meq/L
LDH [17]: 212.4 IU/L
Na [17]: 141 meq/L
PL [17]: 129.4 mg/dL
RALB [17]: 2.7 g/dL
TBIL [17]: 0.002 mg/dL
TG [17]: 104.2 mg/dL
TP [17]: 4.9 g/dL
gamma-GTP [17]: 1 IU/L
